Measurements as given in ChEMBL document CHEMBL1153407, “12-Substituted 2,3-dimethoxy-8,9-methylenedioxybenzo[i]phenanthridines as novel topoisomerase I-targeting antitumor agents” (Bioorg Med Chem, 2009).

Tests used:
[1] = Cytotoxicity against BCRP overexpressing human KBH5.0 cells after 4 days by MTT method; type: functional, cell-based; conditions: KBH5.0 cell, 96 h
[2] = Cytotoxicity against human KB3-1 cells after 4 days by MTT method; type: functional, cell-based; conditions: KB 3-1, 96 h
P388 [3] = assay: Cytotoxicity against mouse P388 cells after 4 days by MTT method; type: functional, cell-based; conditions: P388, 96 h
[4] = Cytotoxicity against human RPMI8402 cells after 4 days by MTT method; type: functional, cell-based; conditions: RPMI 8402, 96 h
[5] = molecular target: T1, DNA topoisomerase 1 (Homo sapiens) (UniProt P11387); assay: Inhibition of human topoisomerase 1 expressed in sf9 cells assessed as drug level causing 10% mediated DNA cleavage relative to topotecan
T1 sequence (whole entry): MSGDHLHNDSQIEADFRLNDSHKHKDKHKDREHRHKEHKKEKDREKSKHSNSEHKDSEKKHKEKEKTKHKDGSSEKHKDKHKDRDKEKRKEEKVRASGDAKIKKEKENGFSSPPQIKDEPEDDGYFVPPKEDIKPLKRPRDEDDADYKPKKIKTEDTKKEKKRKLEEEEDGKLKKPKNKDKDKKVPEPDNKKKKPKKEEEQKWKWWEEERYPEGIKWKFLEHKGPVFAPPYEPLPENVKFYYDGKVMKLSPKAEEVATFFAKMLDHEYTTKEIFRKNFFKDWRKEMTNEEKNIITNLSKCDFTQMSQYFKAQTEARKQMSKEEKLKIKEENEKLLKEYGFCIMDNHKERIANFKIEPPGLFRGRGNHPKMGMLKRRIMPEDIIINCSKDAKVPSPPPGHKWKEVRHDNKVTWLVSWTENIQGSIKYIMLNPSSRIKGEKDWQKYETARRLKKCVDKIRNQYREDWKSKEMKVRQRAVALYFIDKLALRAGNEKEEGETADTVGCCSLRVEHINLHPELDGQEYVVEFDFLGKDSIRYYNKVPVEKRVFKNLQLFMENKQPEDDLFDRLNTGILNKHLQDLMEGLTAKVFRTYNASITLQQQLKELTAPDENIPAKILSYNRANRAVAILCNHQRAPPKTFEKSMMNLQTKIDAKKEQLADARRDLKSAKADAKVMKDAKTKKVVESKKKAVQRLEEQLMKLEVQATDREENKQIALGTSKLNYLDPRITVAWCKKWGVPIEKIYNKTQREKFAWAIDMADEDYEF

[6] = Cytotoxicity against camptothecin-resistant human CPT-K5 cells after 4 days by MTT method; type: functional, cell-based; conditions: CPT-K5, 96 h
P388 [7] = assay: Cytotoxicity against camptothecin-resistant mouse P388 cells after 4 days by MTT method; type: functional, cell-based; conditions: P388, 96 h
[8] = Cytotoxicity against MDR1 overexpressing human KBV1 cells after 4 days by MTT method; type: functional, cell-based; conditions: KB-V1, 96 h

COc1cc2c(CN(C)C)cc3c4cc5c(cc4ncc3c2cc1OC)OCO5
IC50 [1]: 60 nM
IC50 [2]: 30 nM
IC50 (P388 [3]): 5 nM
IC50 [4]: 33 nM
Activity [5]: 1.1
IC50 [6]: 33 nM
IC50 (P388 [7]): 15 nM
IC50 [8]: 170 nM

CCc1c2c(nc3ccc(O)cc13)-c1cc3c(c(=O)n1C2)COC(=O)[C@]3(O)CC [7-ETHYL-10-HYDROXYCAMPTOTHECIN]
IC50 [1]: 300 nM
IC50 [2]: 4 nM
IC50 [8]: 46 nM

COc1cc2c(CNCCN(C)C)cc3c4cc5c(cc4ncc3c2cc1OC)OCO5
IC50 [1]: 38 nM
IC50 [2]: 25 nM
IC50 (P388 [3]): 20 nM
IC50 [4]: 24 nM
Activity [5]: 1.9
IC50 [6]: 30 nM
IC50 (P388 [7]): 24 nM
IC50 [8]: 27 nM

COc1cc2c(C=O)cc3c4cc5c(cc4ncc3c2cc1OC)OCO5
IC50 [1]: 19 nM
IC50 [2]: 4 nM
IC50 (P388 [3]): 2 nM
IC50 [4]: 3 nM
Activity [5]: 4.7
IC50 [6]: 3 nM
IC50 (P388 [7]): 2 nM
IC50 [8]: 16 nM

CC[C@@]1(O)C(=O)OCc2c1cc1n(c2=O)Cc2cc3c(CN(C)C)c(O)ccc3nc2-1 [TOPOTECAN]
IC50 [1]: 440 nM
IC50 [2]: 40 nM
IC50 [8]: 440 nM

COc1cc2c(CCN)cc3c4cc5c(cc4ncc3c2cc1OC)OCO5
IC50 [1]: 200 nM
IC50 [2]: 50 nM
IC50 (P388 [3]): 16 nM
IC50 [4]: 25 nM
Activity [5]: 0.3
IC50 [6]: 250 nM
IC50 (P388 [7]): 300 nM
IC50 [8]: 500 nM

COc1cc2c(C(N)=O)cc3c4cc5c(cc4ncc3c2cc1OC)OCO5
IC50 [1]: > 10000 nM
IC50 [2]: 1500 nM
IC50 (P388 [3]): 1600 nM
IC50 [4]: 4000 nM
Activity [5]: 0.8
IC50 [6]: > 10000 nM
IC50 (P388 [7]): > 10000 nM
IC50 [8]: > 10000 nM

COc1cc2c(CCCCN(C)C)cc3c4cc5c(cc4ncc3c2cc1OC)OCO5
IC50 [1]: 950 nM
IC50 [2]: 400 nM
IC50 (P388 [3]): 1400 nM
IC50 [4]: 1000 nM
Activity [5]: 0.2
IC50 [6]: 2300 nM
IC50 (P388 [7]): 2100 nM
IC50 [8]: 4000 nM

COc1cc2c(CO)cc3c4cc5c(cc4ncc3c2cc1OC)OCO5
IC50 [1]: 80 nM
IC50 [2]: 45 nM
IC50 (P388 [3]): 30 nM
IC50 [4]: 30 nM
Activity [5]: 0.25
IC50 [6]: 30 nM
IC50 (P388 [7]): 30 nM
IC50 [8]: 75 nM

CNC(=O)c1cc2c3cc4c(cc3ncc2c2cc(OC)c(OC)cc12)OCO4
IC50 [1]: 80 nM
IC50 [2]: 31 nM
IC50 (P388 [3]): 30 nM
IC50 [4]: 40 nM
Activity [5]: 1.2
IC50 [6]: > 10000 nM
IC50 (P388 [7]): 300 nM
IC50 [8]: 100 nM

COc1cc2c(/C=C/CCN(C)C)cc3c4cc5c(cc4ncc3c2cc1OC)OCO5
IC50 [1]: 320 nM
IC50 [2]: 320 nM
IC50 (P388 [3]): 30 nM
IC50 [4]: 300 nM
Activity [5]: 15
IC50 [6]: 220 nM
IC50 (P388 [7]): 60 nM
IC50 [8]: 400 nM

COc1cc2c(CC[N+](=O)[O-])cc3c4cc5c(cc4ncc3c2cc1OC)OCO5
IC50 [1]: 490 nM
IC50 [2]: 300 nM
IC50 (P388 [3]): 280 nM
IC50 [4]: 380 nM
Activity [5]: 7.7
IC50 [6]: 300 nM
IC50 (P388 [7]): 290 nM
IC50 [8]: 440 nM

COc1cc2c(CCN(C)C)cc3c4cc5c(cc4ncc3c2cc1OC)OCO5
IC50 [1]: 70 nM
IC50 [2]: 25 nM
IC50 (P388 [3]): 30 nM
IC50 [4]: 30 nM
Activity [5]: 0.5
IC50 [6]: 450 nM
IC50 (P388 [7]): 300 nM
IC50 [8]: 80 nM

COc1cc2c(CCCN(C)C)cc3c4cc5c(cc4ncc3c2cc1OC)OCO5
IC50 [1]: 180 nM
IC50 [2]: 40 nM
IC50 (P388 [3]): 38 nM
IC50 [4]: 180 nM
Activity [5]: 10
IC50 [6]: 140 nM
IC50 (P388 [7]): 100 nM
IC50 [8]: 500 nM

COc1cc2c(/C=C/[N+](=O)[O-])cc3c4cc5c(cc4ncc3c2cc1OC)OCO5
IC50 [1]: 40 nM
IC50 [2]: 30 nM
IC50 (P388 [3]): 25 nM
IC50 [4]: 33 nM
Activity [5]: 9.2
IC50 [6]: 35 nM
IC50 (P388 [7]): 25 nM
IC50 [8]: 1780 nM

COc1cc2c(C(=O)NCCN(C)C)cc3c4cc5c(cc4ncc3c2cc1OC)OCO5
IC50 [1]: 60 nM
IC50 [2]: 5 nM
IC50 (P388 [3]): 3 nM
IC50 [4]: 3 nM
Activity [5]: 0.1
IC50 [6]: 1000 nM
IC50 (P388 [7]): 320 nM
IC50 [8]: 220 nM

COc1cc2c(/C=C/CN(C)C)cc3c4cc5c(cc4ncc3c2cc1OC)OCO5
IC50 [1]: 290 nM
IC50 [2]: 160 nM
IC50 (P388 [3]): 30 nM
IC50 [4]: 45 nM
Activity [5]: 7.7
IC50 [6]: 83 nM
IC50 (P388 [7]): 37 nM
IC50 [8]: 370 nM

COc1cc2c(C(O)CCCN(C)C)cc3c4cc5c(cc4ncc3c2cc1OC)OCO5 (centres undefined)
IC50 [1]: 550 nM
IC50 [2]: 170 nM
IC50 (P388 [3]): 410 nM
IC50 [4]: 300 nM
Activity [5]: 9.2
IC50 [6]: 2100 nM
IC50 (P388 [7]): 510 nM
IC50 [8]: 1900 nM

COc1cc2c3cnc4cc5c(cc4c3c(=O)n(CCN(C)C)c2cc1OC)OCO5
IC50 [1]: 4 nM
IC50 [2]: 3 nM
IC50 [4]: 0.7 nM
Activity [5]: 0.6
IC50 [6]: 210 nM
IC50 (P388 [7]): 15 nM
IC50 [8]: 4 nM

COc1cc2c(=O)n(CCN(C)C)c3c4cc5c(cc4ncc3c2cc1OC)OCO5
IC50 [1]: 6 nM
IC50 [2]: 5 nM
IC50 [4]: 2 nM
Activity [5]: 0.3
IC50 [6]: 900 nM
IC50 [8]: 2 nM

CC[C@@]1(O)C(=O)OCc2c1cc1n(c2=O)Cc2cc3ccccc3nc2-1 [CAMPTOTHECIN]
IC50 [4]: 4 nM
Activity [5]: 0.2
IC50 [6]: > 10000 nM
IC50 (P388 [7]): > 10000 nM

COc1cc2c(C(=O)N(C)C)cc3c4cc5c(cc4ncc3c2cc1OC)OCO5
IC50 [1]: 380 nM
IC50 [2]: 600 nM
IC50 (P388 [3]): 480 nM
IC50 [4]: 600 nM
Activity [5]: 1.1
IC50 [6]: > 10000 nM
IC50 (P388 [7]): > 10000 nM
IC50 [8]: 700 nM
